{"source": "patent US8629177B2", "about": "“Nanoencapsulated delta-9-tetrahydrocannabinol” (Aphios Corporation, priority 2010, dated 2014)", "key": {"[1]": {"assay": "Stability of Δ9-THC in collection buffer compositions and at different pH", "type": "physicochemical", "description": "(§1) Stability Studies: Shelf stability studies were conducted with Δ9-THC, Δ9-THC polymer nanospheres and formulations of the aforementioned. The following tests were performed: (i) physical appearance; and (ii) Δ9-THC content and integrity. Statistical analysis of the data sets were performed using SYSTAT®.\nThe composition of the buffer was determined from stability studies with Δ9-THC at different conditions. […] Stability experiments were also conducted with Δ9-THC at pH=4, 7 and 10. […] Experiments were also used to determine that a low concentration of PVA was adequate for […] and minimizing foaming in the collection buffer. The buffer was deareated to remove dissolved oxygen since Δ9-THC is very sensitive to oxygen. A 10% sucrose buffer was utilized based on prior experimental data for this and other projects to preserve particle integrity after lyophilization. Prior to lyophilization, these products were placed in a −80° C. freezer until they were frozen solid. Samples were then lyophilized for a 24 hour period. These samples were reconstituted in distilled, degasified water and were analyzed using HPLC and particle size analysis via dynamic light scattering. After lyophilization, particle sizes of THC-19 and THC-21 were reduced to 287 and 230 nm respectively, and the recovery efficiencies were 77% and 95% respectively."}, "[2]": {"assay": "6-week stability of nanoencapsulated and naked Δ9-THC at 4, 25 and 40° C.", "type": "physicochemical", "settings": "4° C., 25° C. and 40° C.", "description": "as §1\nStability studies were conducted on polymer nanoencapsulated Δ9-THC (THC-12-1) and naked Δ9-THC samples over a 6-week period at 4° C., 25° C. and 40° C."}, "Fischer rats": {"test_system": "Fischer rats", "settings": "cited from earlier work"}}, "note": "Where two headings read alike, the source gives them in different places."}
{"smiles": "CCCCCc1cc(O)c2c(c1)OC(C)(C)[C@@H]1CCC(C)=C[C@@H]21", "note": "[Δ9-THC, delta-9-tetrahydrocannabinol]", "values": [{"measurement": "stability at pH=4, 7 and 10", "setting": "[1]; pH 4, 7, 10 compared", "result": "most stable at pH=4"}, {"measurement": "stability in 10% sucrose/0.1% PVA solution with 40% ethanol", "setting": "[1]; six day study, 40% ethanol", "result": "stable if 40% ethanol is introduced"}, {"measurement": "stability in 10% sucrose/0.1% PVA solution", "setting": "[1]; six day study, PVA-sucrose solution without sufficient ethanol (0%, 20%, 30%)", "result": "degrades in the PVA-sucrose solution"}, {"measurement": "degradation by temperature", "setting": "[2]; 6-week period", "result": "degrades almost equally at each temperature"}, {"measurement": "degradation after 6 weeks", "setting": "[2]; after 6 weeks", "result": "most of the Δ9-THC is degraded"}, {"measurement": "LD50", "setting": "Fischer rats; females, orally, sesame oil vehicle", "result": 730, "unit": "mg/kg"}, {"measurement": "LD50", "setting": "Fischer rats; males, females, i.v.", "result": 40, "unit": "mg/kg"}, {"measurement": "LD50 corrected for particulate losses and pulmonary adsorption", "setting": "Fischer rats; males, females, inhalation, corrected", "result": 42, "unit": "mg/kg"}, {"measurement": "LD50", "setting": "Fischer rats; males, females, inhalation", "result": 105.7, "unit": "mg/kg"}, {"measurement": "LD50", "setting": "Fischer rats; males, orally, sesame oil vehicle", "result": "1,270 mg/kg"}, {"measurement": "LD50", "setting": "Fischer rats; males, orally, sesame oil, 1% polysorbate 80, saline emulsion", "result": 800, "unit": "mg/kg"}]}
